The results in this text go back to patent publication US20240358841A1, “NANOMATERIALS COMPRISING TETRAVALENT LIPID COMPOUNDS” (Beam Therapeutics Inc., priority 2021, published 2024).

One data set concerns Lung. Nature of the data set: Barcoded pooled LNP biodistribution screen, fold above input (FAI) in lung. In kind it is in vivo. The following applies: pooled LNP IV tail vein, mice, 4 hours post-dose. As to the method: (§1) Male and female mice aged approximately 8-12 weeks were used for studies described by the present Example. Each mouse was temporarily restrained and pooled LNP was administered IV via tail vein injection in up to five animals per experiment. Age-matched mice was also used to administer vehicle (1×TBS) via tail vein injection in up to three animals per experiment. Additional routes of administration can also be conducted including intracerebral ventricular (ICV), intracisterna manga (ICM), intrathecal (IT), intramuscular (IM), nebulization, intranasal (IN), subcutaneous (SC), intraarticular, and intradermal (ID). At 4 hours post-dose, tissues including liver, spleen, bone marrow, testes, gastrocnemius, quadricep, lung, heart, kidney, and pancreas may be collected for analysis.
Liver, kidney, lung, and muscle (e.g. skeletal and cardiac) tissues may be mechanically, and then enzymatically digested using a mixture of proteinases, then passed through a 70 μm filter to generate single cell suspensions. Spleen tissues were mechanically digested to generate single cell suspensions. Tissues were treated with ACK buffer to lyse red blood cells, and then stained with fluorescently labeled antibodies for flow cytometry and fluorescence-activated cell sorting (FACS). Commercially available antibodies were used in the present example. Using a BD FACSMelody (Becton Dickinson), samples were acquired via flow cytometry to generate gates prior to sorting. In general, the gating structure was size→singlet cells→live cells→cells of interest. T cells were defined as CD45+CD3+, monocytes are defined as CD45+CD11b+, and B cells are defined as CD45+CD19+. Endothelial cells were defined as CD31+, monocytes and Kupffer cells as CD45+CD11b+ and hepatocytes and myocytes were defined as CD31−/CD45− in the liver and muscle, respectively. Tissues from vehicle-dosed mice were used to set the gates for sorting.
RNA from tissues were extracted using the Reliaprep RNA extraction kit, and libraries were prepared using the RNAseq kit, and sequenced on either a MiSeq or NextSeq500.
(§2) To screen for preferential LNP delivery to a target tissues, the relative abundance of each barcode in one or more target tissues was measured and compared to the relative abundance of each barcode to its corresponding relative input abundance to determine fold above input (FAI) for each barcode. […]
(§3) The FAI is the normalized relative abundance of a barcode in a selected sample as compared to its frequency in the input. […] The FAI value of the barcode was calculated by normalizing the relative abundance in the barcode sequence counts in the isolated samples to its relative abundance in the administration input. […]

The subject of the next data set is Spleen. Nature of the data set: Barcoded pooled LNP biodistribution screen, fold above input (FAI) in spleen. Type of data set: in vivo. To be noted: pooled LNP IV tail vein, mice, 4 hours post-dose. How it is done:
as §1
(§4) Liver, kidney, lung, and muscle (e.g. skeletal and cardiac) tissues may be mechanically, and then enzymatically digested using a mixture of proteinases, then passed through a 70 μm filter to generate single cell suspensions. Spleen tissues were mechanically digested to generate single cell suspensions. Tissues were treated with ACK buffer to lyse red blood cells, and then stained with fluorescently labeled antibodies for flow cytometry and fluorescence-activated cell sorting (FACS). Commercially available antibodies were used in the present example. Using a BD FACSMelody (Becton Dickinson), samples were acquired via flow cytometry to generate gates prior to sorting. […]
as §2, §3

The subject of the next data set is Liver. Nature of the data set: Barcoded pooled LNP biodistribution screen, fold above input (FAI) in liver. In kind it is in vivo. The following applies: pooled LNP IV tail vein, mice, 4 hours post-dose. As to the method:
as §1, §4, §2, §3

Data set [1] can be described thus: LNP hydrodynamic diameter and polydispersity index by dynamic light scattering (DLS). In kind it is physicochemical. To be noted: LNP: 47.5% ionizable lipid, 40% cholesterol, 2.5% PEG-2000 DMG, 10% DPSC, N/P 4-8. How it is done: (§5) LNPs were prepared with 47.5% Ionizable Lipid (e.g., a compound provided herein): 40% cholesterol: 2.5% PEG-2000 DMG; and 10% DPSC and an N/P ratio range of 4-8. LNPs were formed by microfluidic mixing of the lipid and NA solutions using a Precision Nanosystems NanoAssemblr Spark or Benchtop series Instruments, according to the manufacturers protocol. A ratio of aqueous to organic solvent of approximately 2:1 or 3:1 was maintained during mixing using differential flow rates. After mixing, LNPs were collected, diluted in phosphate buffer saline (PBS) or Tris-buffered saline (TBS) (approximately 1:1 v/v). Further buffer exchange was conducted using dialysis in PBS or TBS at 4° C. for 4 to 24 hours against a 20 kDa filter. After this initial dialysis, each individual LNP preparation was characterized via dynamic light scattering (DLS) to measure the size (e.g., diameter) and polydispersity. LNPs falling within specific diameter and polydispersity ranges were pooled, and further dialyzed against PBS or TBS at 4° C. for 1 to 4 hours against a 100 kDa dialysis cassette. After the second dialysis, LNPs were sterile filtered using 0.22 μm filter and stored at 4° C. for further use.
LNP hydrodynamic diameter and polydispersity index (PDI) were measured using high throughput dynamic light scattering (DLS) (Stunner, Unchained Labs). LNPs were diluted 1×TBS or PBS to an appropriate concentration and analyzed.

Data set [2] in a line: LNP encapsulation efficiency by Ribogreen assay. In kind it is physicochemical. The following applies: LNP: 47.5% ionizable lipid, 40% cholesterol, 2.5% PEG-2000 DMG, 10% DPSC, N/P 4-8. How it is done: as §5
RNA concentration and encapsulation efficiency were determined by Ribogreen assay (BioTek Synergy LX plate reader).

Where [3] appears, read: screening experiment of Table 4.
[4] abbreviates: screening experiment of Table 5.
Where [5] appears, read: screening experiment of Table 6.

Each structure is given as a SMILES string.

Consider `CCCCC/C=C\C/C=C\CCCCCCCCC(CCCCCCCC/C=C\C/C=C\CCCCC)OC(=O)CCCN(C)C` [MC3], for which the “FAI (Lung)” value in the data set on Lung (screening experiment of Table 3) is 0.50; in the data set on Lung (setting [3]), 0.86; in the data set with Lung (setting [4]), 1.51; in the data set with Lung (setting [5]), 1.68. Further, the “FAI (Spleen)” value in the data set with Spleen (setting [3]) is 1.57; in the data set on Spleen (setting [4]) it was 0.61; in the data set on Spleen (setting [5]), 1.50. Moreover, the “FAI (Liver)” value is listed as 1.00 in the data set with Liver (setting [3]), 0.30 in the data set with Liver (setting [4]) and 0.73 in the data set on Liver (setting [5]).

For `CC/C=C\CCCCOC(CCC(=O)OCC(COC(=O)CCCCCCOC(=O)C(CCCC)CCCCCC)(COC(=O)CCCCCCOC(=O)C(CCCC)CCCCCC)COC(=O)OCC1CCCN(CC)C1)OCCCC/C=C\CC` (stereo not shown) [Compound 7-59, ((2-(((4,4-bis(((Z)-oct-5-en-1-yl)oxy)butanoyl)oxy)methyl)-2-(((((1-ethylpiperidin-3-yl)methoxy)carbonyl)oxy)methyl)propane-1,3-diyl)bis(oxy))bis(7-oxoheptane-7,1-diyl) bis(2-butyloctanoate)], in data set [1], the “Mean Diameter (nm)” value worked out at 82.4 nm and the “Mean PDI” value worked out at 0.15. Also, in data set [2], the “Mean Encapsulation Efficiency (%)” value is recorded as 86.7%.

As for `CC/C=C\CCCCOC(CCC(=O)OCC(COC(=O)CCCCCCOC(=O)C(CCCC)CCCCCC)(COC(=O)CCCCCCOC(=O)C(CCCC)CCCCCC)COC(=O)OCCCN(CC)CC)OCCCC/C=C\CC` (stereo not shown) [Compound 7-56], in data set [1], the “Mean Diameter (nm)” value is given as 78.2 nm and the “Mean PDI” value is 0.11. Also, the “Mean Encapsulation Efficiency (%)” value in data set [2] was 88.1%.

On to `CC/C=C\CCCCOC(CCC(=O)OCC(COC(=O)CCCCCOC(=O)C(CCCC)CCCCCC)(COC(=O)CCCCCOC(=O)C(CCCC)CCCCCC)COC(=O)OCCCN(CC)CC)OCCCC/C=C\CC` (stereo not shown) [Compound 7-55], for which, in data set [1], the “Mean Diameter (nm)” value came out at 80.1 nm and the “Mean PDI” value was 0.13. Besides, the “Mean Encapsulation Efficiency (%)” value in data set [2] is recorded as 87.5%.

In the case of `CCCCC/C=C\CCOC(=O)CCCCCC(=O)OCC(COC(=O)CCCCCC(=O)OCC/C=C\CCCCC)(COC(=O)CCCN1CCCC1)COC(=O)CC12CC3CC(CC(C3)C1)C2` [Compound 7-53, O′1,O1-(2-((2-(adamantan-1-yl)acetoxy)methyl)-2-(((4-(pyrrolidin-1-yl)butanoyl)oxy)methyl)propane-1,3-diyl) 7,7′-di((Z)-non-3-en-1-yl) di(heptanedioate)], in data set [1], the “Mean Diameter (nm)” value is recorded as 157.7 nm and the “Mean PDI” value is listed as 0.08. Further, the “Mean Encapsulation Efficiency (%)” value in data set [2] stood at 43.3%.

On to `CC/C=C\CCCCOC(CCC(=O)OCC(COC(=O)CCCCCCCOC(=O)C(CCCC)CCCCCC)(COC(=O)CCCCCCCOC(=O)C(CCCC)CCCCCC)COC(=O)OCC1CCCN(CC)C1)OCCCC/C=C\CC` (stereo not shown) [Compound 7-60, 2-(((4,4-bis(((Z)-oct-5-en-1-yl)oxy)butanoyl)oxy)methyl)-2-(((((1-ethylpiperidin-3-yl)methoxy)carbonyl)oxy)methyl)propane-1,3-diyl bis(8-((2-butyloctanoyl)oxy)octanoate)], for which, in data set [1], the “Mean Diameter (nm)” value turned out to be 86.6 nm and the “Mean PDI” value is 0.14. Also, the “Mean Encapsulation Efficiency (%)” value in data set [2] came to 84.6%.
